Experimental data reported in PubChem BioAssay (NCI).
Several values for one entry are separate records, joined by “and”; a condition that tells them apart may be missing. Identical values can stand only once.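 Results reflect a 48-hour exposure of cells in 96-well plates to compound at five concentrations. Here, GI50 denotes the concentration required for 50% inhibition of growth. TGI: concentration producing complete growth inhibition.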

The compounds below were run on SW-620 colon (assay: growth of human tumour cells (NCI), 48 h).
Compound `CCOC(=O)c1c(C)n(Cc2ccc(Cl)cc2Cl)c2c1c(CN(C)C)c(O)c1[nH]cnc12` has a GI50 of 20.1 µM and a TGI of 34.3 µM.
With `COc1cccc2c1C(=O)c1c(O)c3c(c(O)c1C2=O)C[C@@](O)(C(C)=O)C[C@@H]3OC1OC(C)C(O)C(N)C1Br` (stereo partly drawn) the GI50 was 0.0266 µM and the TGI was 0.766 µM and 1.46 µM.
For `CN1C/C=C\CCOc2cccc(c2)-c2ccnc(n2)Nc2cccc(c2)C1`, the GI50 was 0.0439 µM and the TGI was 4.49 µM.
For `Oc1ccccc1C(Sc1nc2ccccc2s1)Sc1nc2ccccc2s1`, the TGI was > 100 µM.
`COC1=C(C)C(=O)c2c(c(COC(N)=O)c3n2CC2C3N2C)C1=O` (stereo not drawn) showed a TGI of 0.145 µM.
With `COc1ccc(Cn2cc3c(c2-c2ccccc2)CC(C)(C)c2cnoc2-3)cc1` the GI50 was 0.806 µM and the TGI was > 100 µM.
With `c1cc(CNC23CC4CC(CC(C4)C2)C3)cc(C[N+](Cc2cccc(CNC34CC5CC(CC(C5)C3)C4)c2)(Cc2cccc(CNC34CC5CC(CC(C5)C3)C4)c2)Cc2cccc(CNC34CC5CC(CC(C5)C3)C4)c2)c1` (stereo not drawn) the GI50 was 5.23 µM and the TGI was 16.5 µM.
`Oc1cccnc1CN1CCCCC1` was tested, and the TGI was > 100 µM.
In the case of `CN(C)C(=O)c1cc2cnc(Nc3ccc(-c4csc5c(=S)cc(N6CCOCC6)oc45)cc3)nc2n1C1CCCC1`, the GI50 is reported as 0.604 µM and the TGI is reported as > 50 µM.
`COC1=CC(=O)c2nc(-c3cccc(C)n3)[nH]c2C1=O` was tested, and the GI50 was 21.4 µM and the TGI was 54.8 µM.

These compounds were tested on M14 melanoma (assay: growth of human tumour cells (NCI), 48 h).
`CCOC(=O)c1c(C)n(Cc2ccc(Cl)cc2Cl)c2c1c(CN(C)C)c(O)c1[nH]cnc12` gave a GI50 of 24.2 µM and a TGI of 43.9 µM.
For `COc1cccc2c1C(=O)c1c(O)c3c(c(O)c1C2=O)C[C@@](O)(C(C)=O)C[C@@H]3OC1OC(C)C(O)C(N)C1Br` (stereo partly drawn), the GI50 was 0.0535 µM and the TGI was 0.257 µM and 0.669 µM.
`CN1C/C=C\CCOc2cccc(c2)-c2ccnc(n2)Nc2cccc(c2)C1` gave a GI50 of 0.0644 µM and a TGI of 0.346 µM.
For `Oc1ccccc1C(Sc1nc2ccccc2s1)Sc1nc2ccccc2s1`, the TGI was > 100 µM.
For `COC1=C(C)C(=O)c2c(c(COC(N)=O)c3n2CC2C3N2C)C1=O` (stereo not drawn), the TGI was 0.0641 µM.
`COc1ccc(Cn2cc3c(c2-c2ccccc2)CC(C)(C)c2cnoc2-3)cc1` was tested, and the GI50 was 2.03 µM and the TGI was > 100 µM.
Compound `c1cc(CNC23CC4CC(CC(C4)C2)C3)cc(C[N+](Cc2cccc(CNC34CC5CC(CC(C5)C3)C4)c2)(Cc2cccc(CNC34CC5CC(CC(C5)C3)C4)c2)Cc2cccc(CNC34CC5CC(CC(C5)C3)C4)c2)c1` (stereo not drawn) has a GI50 of 3.36 µM and a TGI of 8.69 µM.
In the case of `Oc1cccnc1CN1CCCCC1`, the TGI is reported as > 100 µM.
With `CN(C)C(=O)c1cc2cnc(Nc3ccc(-c4csc5c(=S)cc(N6CCOCC6)oc45)cc3)nc2n1C1CCCC1` the GI50 was 0.838 µM and the TGI was > 50 µM.
`COC1=CC(=O)c2nc(-c3cccc(C)n3)[nH]c2C1=O` was tested, and the GI50 was 35.6 µM and the TGI was > 100 µM.

What follows are compounds tested on OVCAR-8 ovarian (assay: growth of human tumour cells (NCI), 48 h).
In the case of `CCOC(=O)c1c(C)n(Cc2ccc(Cl)cc2Cl)c2c1c(CN(C)C)c(O)c1[nH]cnc12`, the GI50 is reported as 15.1 µM and the TGI is reported as 28.3 µM.
In the case of `COc1cccc2c1C(=O)c1c(O)c3c(c(O)c1C2=O)C[C@@](O)(C(C)=O)C[C@@H]3OC1OC(C)C(O)C(N)C1Br` (stereo partly drawn), the GI50 is reported as 0.0331 µM and the TGI is reported as 0.207 µM and 0.646 µM.
Work on `CN1C/C=C\CCOc2cccc(c2)-c2ccnc(n2)Nc2cccc(c2)C1` yielded a GI50 of 0.0385 µM and a TGI of 0.887 µM.
In the case of `Oc1ccccc1C(Sc1nc2ccccc2s1)Sc1nc2ccccc2s1`, the TGI is reported as > 100 µM.
For `COC1=C(C)C(=O)c2c(c(COC(N)=O)c3n2CC2C3N2C)C1=O` (stereo not drawn), the TGI was 0.216 µM.
With `COc1ccc(Cn2cc3c(c2-c2ccccc2)CC(C)(C)c2cnoc2-3)cc1` the GI50 was 4.66 µM and the TGI was > 100 µM.
`c1cc(CNC23CC4CC(CC(C4)C2)C3)cc(C[N+](Cc2cccc(CNC34CC5CC(CC(C5)C3)C4)c2)(Cc2cccc(CNC34CC5CC(CC(C5)C3)C4)c2)Cc2cccc(CNC34CC5CC(CC(C5)C3)C4)c2)c1` (stereo not drawn) gave a GI50 of 8.64 µM and a TGI of 35.4 µM.
With `Oc1cccnc1CN1CCCCC1` the TGI was > 100 µM.
`CN(C)C(=O)c1cc2cnc(Nc3ccc(-c4csc5c(=S)cc(N6CCOCC6)oc45)cc3)nc2n1C1CCCC1` was tested, and the GI50 was 0.744 µM and the TGI was > 50 µM.
`COC1=CC(=O)c2nc(-c3cccc(C)n3)[nH]c2C1=O` was tested, and the GI50 was 24.7 µM and the TGI was 78.2 µM.

What follows are compounds tested on SNB-75 CNS (assay: growth of human tumour cells (NCI), 48 h).
`CCOC(=O)c1c(C)n(Cc2ccc(Cl)cc2Cl)c2c1c(CN(C)C)c(O)c1[nH]cnc12` showed a GI50 of 3.55 µM and a TGI of 17 µM.
For `COc1cccc2c1C(=O)c1c(O)c3c(c(O)c1C2=O)C[C@@](O)(C(C)=O)C[C@@H]3OC1OC(C)C(O)C(N)C1Br` (stereo partly drawn), the GI50 was 0.151 µM.
`CN1C/C=C\CCOc2cccc(c2)-c2ccnc(n2)Nc2cccc(c2)C1` was tested, and the GI50 was 0.0545 µM and the TGI was 0.169 µM.
In the case of `Oc1ccccc1C(Sc1nc2ccccc2s1)Sc1nc2ccccc2s1`, the TGI is reported as > 100 µM.
With `COC1=C(C)C(=O)c2c(c(COC(N)=O)c3n2CC2C3N2C)C1=O` (stereo not drawn) the TGI was < 0.0446 µM.
With `COc1ccc(Cn2cc3c(c2-c2ccccc2)CC(C)(C)c2cnoc2-3)cc1` the GI50 was 1.63 µM and the TGI was 6.15 µM.
`c1cc(CNC23CC4CC(CC(C4)C2)C3)cc(C[N+](Cc2cccc(CNC34CC5CC(CC(C5)C3)C4)c2)(Cc2cccc(CNC34CC5CC(CC(C5)C3)C4)c2)Cc2cccc(CNC34CC5CC(CC(C5)C3)C4)c2)c1` (stereo not drawn) was tested, and the GI50 was 9.78 µM and the TGI was 40.7 µM.
`Oc1cccnc1CN1CCCCC1` was tested, and the TGI was > 100 µM.
Compound `CN(C)C(=O)c1cc2cnc(Nc3ccc(-c4csc5c(=S)cc(N6CCOCC6)oc45)cc3)nc2n1C1CCCC1` has a GI50 of 0.314 µM and a TGI of 2.04 µM.
Compound `COC1=CC(=O)c2nc(-c3cccc(C)n3)[nH]c2C1=O` has a GI50 of 21.2 µM and a TGI of 43.6 µM.

The compounds below were run on A549 NSCLC (assay: growth of human tumour cells (NCI), 48 h).
Compound `CCOC(=O)c1c(C)n(Cc2ccc(Cl)cc2Cl)c2c1c(CN(C)C)c(O)c1[nH]cnc12` has a GI50 of 15.9 µM and a TGI of 32.5 µM.
In the case of `COc1cccc2c1C(=O)c1c(O)c3c(c(O)c1C2=O)C[C@@](O)(C(C)=O)C[C@@H]3OC1OC(C)C(O)C(N)C1Br` (stereo partly drawn), the TGI is reported as 0.262 µM.
Compound `CN1C/C=C\CCOc2cccc(c2)-c2ccnc(n2)Nc2cccc(c2)C1` has a GI50 of 0.0469 µM and a TGI of 0.8 µM.
`Oc1ccccc1C(Sc1nc2ccccc2s1)Sc1nc2ccccc2s1` was tested, and the TGI was > 100 µM.
`COC1=C(C)C(=O)c2c(c(COC(N)=O)c3n2CC2C3N2C)C1=O` (stereo not drawn) gave a TGI of 0.0645 µM.
In the case of `COc1ccc(Cn2cc3c(c2-c2ccccc2)CC(C)(C)c2cnoc2-3)cc1`, the GI50 is reported as 3.17 µM and the TGI is reported as > 100 µM.
In the case of `c1cc(CNC23CC4CC(CC(C4)C2)C3)cc(C[N+](Cc2cccc(CNC34CC5CC(CC(C5)C3)C4)c2)(Cc2cccc(CNC34CC5CC(CC(C5)C3)C4)c2)Cc2cccc(CNC34CC5CC(CC(C5)C3)C4)c2)c1` (stereo not drawn), the GI50 is reported as 8.91 µM and the TGI is reported as 36.4 µM.
In the case of `Oc1cccnc1CN1CCCCC1`, the TGI is reported as > 100 µM.
Work on `CN(C)C(=O)c1cc2cnc(Nc3ccc(-c4csc5c(=S)cc(N6CCOCC6)oc45)cc3)nc2n1C1CCCC1` yielded a GI50 of 0.823 µM and a TGI of 5.15 µM.
For `COC1=CC(=O)c2nc(-c3cccc(C)n3)[nH]c2C1=O`, the GI50 was 19.1 µM and the TGI was 39.1 µM.
